From patent publication US20080152640A1, “Means and Methods For Treating a Disease Which is Associated With an Excess Transport of Hyaluronan Across a Lipid Bilayer” (priority 2003, published 2008)
Read-outs that look alike come from different tables or passages of the source.

Tests used:
[1] = target: T1, MRP7 (Homo sapiens, UniProt Q5T3U5); settings: cited from earlier work
T1 sequence (Q5T3U5 1-1492): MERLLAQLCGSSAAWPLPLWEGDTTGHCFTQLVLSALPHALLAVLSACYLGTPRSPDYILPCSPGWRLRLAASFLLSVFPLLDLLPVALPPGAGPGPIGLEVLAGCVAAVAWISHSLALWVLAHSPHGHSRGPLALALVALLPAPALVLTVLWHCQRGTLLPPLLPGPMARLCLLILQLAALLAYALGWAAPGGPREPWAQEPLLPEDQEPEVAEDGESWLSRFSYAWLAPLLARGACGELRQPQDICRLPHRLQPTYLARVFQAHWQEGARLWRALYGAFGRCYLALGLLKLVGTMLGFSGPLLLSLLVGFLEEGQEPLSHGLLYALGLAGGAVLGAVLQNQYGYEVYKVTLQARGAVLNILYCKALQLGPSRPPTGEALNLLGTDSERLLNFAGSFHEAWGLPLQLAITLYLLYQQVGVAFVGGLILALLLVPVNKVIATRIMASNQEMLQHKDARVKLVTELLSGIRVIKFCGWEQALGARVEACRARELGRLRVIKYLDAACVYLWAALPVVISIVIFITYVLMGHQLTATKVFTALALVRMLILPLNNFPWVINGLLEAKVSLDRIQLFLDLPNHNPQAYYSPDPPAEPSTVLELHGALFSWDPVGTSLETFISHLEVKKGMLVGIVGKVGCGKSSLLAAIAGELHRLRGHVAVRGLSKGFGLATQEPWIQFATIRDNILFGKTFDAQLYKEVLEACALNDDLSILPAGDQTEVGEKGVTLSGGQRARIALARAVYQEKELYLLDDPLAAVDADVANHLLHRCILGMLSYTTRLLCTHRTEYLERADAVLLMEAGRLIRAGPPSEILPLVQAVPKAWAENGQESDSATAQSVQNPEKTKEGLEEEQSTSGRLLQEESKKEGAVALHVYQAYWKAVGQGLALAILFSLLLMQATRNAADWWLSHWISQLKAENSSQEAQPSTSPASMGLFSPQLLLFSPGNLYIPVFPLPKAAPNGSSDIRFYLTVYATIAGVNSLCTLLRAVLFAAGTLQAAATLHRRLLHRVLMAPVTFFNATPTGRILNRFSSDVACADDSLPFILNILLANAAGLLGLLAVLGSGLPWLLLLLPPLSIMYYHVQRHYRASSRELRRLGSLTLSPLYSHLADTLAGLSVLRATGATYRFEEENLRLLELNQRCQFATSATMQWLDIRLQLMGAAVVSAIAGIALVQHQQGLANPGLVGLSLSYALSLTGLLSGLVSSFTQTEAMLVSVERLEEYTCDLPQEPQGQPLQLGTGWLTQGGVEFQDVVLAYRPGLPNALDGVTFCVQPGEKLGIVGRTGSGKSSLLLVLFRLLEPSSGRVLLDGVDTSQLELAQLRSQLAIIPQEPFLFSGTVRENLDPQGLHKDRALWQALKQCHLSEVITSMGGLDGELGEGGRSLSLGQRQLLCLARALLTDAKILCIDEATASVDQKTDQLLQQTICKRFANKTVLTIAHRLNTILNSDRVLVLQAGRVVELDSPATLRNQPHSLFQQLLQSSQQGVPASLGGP

[2] = system: human skin fibroblasts; assay: Proliferation of human skin fibroblasts (cell counting); assay type: cell-based; settings: Homo sapiens, Skin fibroblast, read-out: Proliferation (IC50)
Protocol: Human fibroblasts were grown in […] in Dulbecco's modified Eagles medium supplemented with streptomycin/penicillin (100 units of each/ml), kanamycin (100 units/ml) and 10% foetal calf serum. Cell proliferation was determined by cell counting after trypsinisation three days after seeding.

[3] = system: hyaluronan transport; assay: Inhibition of hyaluronan transport (export) from human fibroblasts, discussion of Example 9; settings: for inhibition of hyaluronan transport (words): human fibroblasts
Protocol: Cells from five culture flasks (180 cm2 growth area) were washed with cold phosphate buffered saline (PBS), harvested with the aid of a rubber policeman, sedimented at 1500 g for 5 min and suspended in 30 ml of ice-cold PBS. The cells were transferred into a Parr-cell disruption bomb, exposed to a nitrogen pressure of 900 psi for 15 min and disrupted by nitrogen cavitation [18] and the particulate fraction was obtained by centrifugation at 40000 g for 20 min. […] Hyaluronan synthesis was stopped by adding a solution of 10% sodium dodecylsuifate (SDS) to a final concentration of 1%. The mixtures were applied to descending paper chromatography that was developed with ethanol/aq. 1 M ammonium acetate pH 5.5 (13:7) as solvent. After 18 h the radioactivity of [14C]hyaluronan at the origin was determined.
Trypsinised fibroblasts were suspended in Dulbecco's medium at 10^5 cells/ml and 100 μl aliquots were transferred to a 96 well microtiter plate. The first row received 200 μl of the suspension and 20 μl of the multidrug resistance inhibitors dissolved in DMSO at concentrations of 4 mM. A serial dilution to the inhibitors was established by transfer of 100 μl aliquots from the first row to the following rows. All experiments were performed in duplicates. […] The cells were incubated for 2 days at 37° C. and aliquots (5 and 20 μl) of the culture medium were used for measurement of the hyaluronan concentration in the cell culture medium by an ELISA [19]. […] The mixtures were transferred to the hyaluronan-coated test plate and incubated for 1 hour at 37° C. The microtiter plate was washed three times with buffer A and incubated with 100 μl/well of a solution of streptavidin-horseraddish-peroxidase (Amersham) at a dilution of 1:100 in phosphate buffered saline, 0.1% Tween-20 for 30 min at room temperature. The plate was washed five times with buffer A and the colour was developed by incubation with a 100 μl/well of a solution of 5 mg o-phenylenediamine and 5 μl 30% H2O2 in 10 ml of 0.1 M citrate-phosphate buffer pH 5.3 for 25 min at room temperature. The adsorption was read at 490 nm. The concentrations in the samples were calculated from a logarithmic regression curve of the hyaluronan standard solutions.
Three parameters were measured: 1. The amount of hyaluronan produced during growth into the culture supernatant. 2. The hyaluronan synthase activity in particulate membrane fractions to eliminate the possibility that inhibition of hyaluronan production in cell culture could be caused indirectly by cellular mediators. 3. The effect on cell proliferation, because hyaluronan synthesis is also required for detachment during mitosis and growth of the human HT1080 cell line [14].

[4] = system: human fibroblasts; assay: Hyaluronan production of human fibroblasts (ELISA of culture medium); assay type: cell-based; settings: for IC50: Fibroblast, read-out: HA production (IC50)
[5] = target: T2, MRP4 (Homo sapiens, UniProt O15439); settings: read-out: IC50, MRP4 mediated export of methotrexate; substrate methotrexate; cited from earlier work
T2 sequence (O15439 1-1325): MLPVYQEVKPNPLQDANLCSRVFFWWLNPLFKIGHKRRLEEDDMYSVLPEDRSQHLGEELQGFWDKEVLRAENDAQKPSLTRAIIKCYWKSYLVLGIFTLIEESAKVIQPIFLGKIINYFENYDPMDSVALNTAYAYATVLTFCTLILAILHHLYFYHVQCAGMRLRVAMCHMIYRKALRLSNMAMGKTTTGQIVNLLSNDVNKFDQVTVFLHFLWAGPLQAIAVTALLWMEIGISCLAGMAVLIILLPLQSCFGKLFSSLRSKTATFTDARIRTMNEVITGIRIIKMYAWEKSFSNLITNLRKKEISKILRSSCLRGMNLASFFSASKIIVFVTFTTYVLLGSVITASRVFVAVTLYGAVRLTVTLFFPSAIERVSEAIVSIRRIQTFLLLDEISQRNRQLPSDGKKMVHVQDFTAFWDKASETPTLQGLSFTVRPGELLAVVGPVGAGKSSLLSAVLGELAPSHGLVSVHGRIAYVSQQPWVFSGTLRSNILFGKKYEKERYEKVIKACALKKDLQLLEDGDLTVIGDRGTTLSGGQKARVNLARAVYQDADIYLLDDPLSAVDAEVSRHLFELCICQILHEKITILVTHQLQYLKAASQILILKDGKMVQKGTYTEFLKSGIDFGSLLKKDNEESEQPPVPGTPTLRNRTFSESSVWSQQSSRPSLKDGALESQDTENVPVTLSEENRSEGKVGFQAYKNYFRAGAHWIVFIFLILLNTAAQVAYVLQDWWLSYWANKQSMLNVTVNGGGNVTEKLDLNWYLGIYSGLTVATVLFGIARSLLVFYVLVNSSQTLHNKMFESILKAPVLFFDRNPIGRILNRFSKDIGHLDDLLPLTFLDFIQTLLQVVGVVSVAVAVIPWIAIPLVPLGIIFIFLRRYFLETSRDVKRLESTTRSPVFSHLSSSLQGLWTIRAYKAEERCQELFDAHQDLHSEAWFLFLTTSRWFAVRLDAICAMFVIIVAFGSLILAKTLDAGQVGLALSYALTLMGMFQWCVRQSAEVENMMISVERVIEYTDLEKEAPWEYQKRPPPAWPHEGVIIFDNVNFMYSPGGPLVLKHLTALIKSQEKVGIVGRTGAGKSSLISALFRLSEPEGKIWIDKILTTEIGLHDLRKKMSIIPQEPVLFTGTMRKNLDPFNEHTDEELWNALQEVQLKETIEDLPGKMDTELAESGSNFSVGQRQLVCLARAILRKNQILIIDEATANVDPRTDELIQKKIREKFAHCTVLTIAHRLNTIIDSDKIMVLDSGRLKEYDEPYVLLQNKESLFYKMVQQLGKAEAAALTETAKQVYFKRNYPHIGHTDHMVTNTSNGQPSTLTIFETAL

[6] = system: hyaluronan synthase; settings: for IC50: read-out: HA synthase activity (IC50), membranes of human fibroblasts
[7] = target: MRP5 (Homo sapiens, UniProt O15440); settings: cited from earlier work
[8] = target: MRP2 (Homo sapiens, UniProt Q92887); settings: cited from earlier work
[9] = target: MRP transporters (Homo sapiens, UniProt P33527); settings: read-out: IC50 for MRP transporter; cited from earlier work
[10] = target: MDR1 (Homo sapiens, UniProt P08183); settings: cited from earlier work
[11] = target: MRP1 (Homo sapiens, UniProt P33527); settings: read-out: IC50, transport of 17β-glucuronosyl-estradiol by MRP1; substrate 17β-glucuronosyl-estradiol; cited from earlier work
[12] = system: bovine articular cartilage; assay: Proteoglycan loss from interleukin-induced osteoarthritic bovine cartilage organ culture; assay type: cell-based; settings: different concentrations
Text: We analyzed the efficacy of several inhibitors in organ cultures of bovine articular cartilage that was induced to become osteoarthritic by interleukin.

[13] = system: human fibroblasts; assay: Export of endogenously synthesized [3H]hyaluronan from human fibroblasts; assay type: cell-based; settings: for [3H]hyaluronan: 50 μg/ml in pinocytotic media, 40 hours
Protocol: (§1) This experiment was performed to investigate, whether an excess of hyaluronan oligosaccharides introduced into the cytosol interfere with the export of hyaluronan synthesized by the human fibroblasts. Fibroblasts (4×10^4 cells) were seeded into culture flasks of 25 cm^2 growth areas and incubated for 24 hours. High molecular weight hyaluronan, hyaluronan oligosaccharides, a mixture of N-acetyl-glucosamine and glucuronic acid or control buffer were introduced into the cytosol by the method of osmotic lysis of pinocytotic vesicles. The concentrations of the added components in the pinocytotic media were 50 μg/ml. The cells were incubated for 40 hours in the presence of [3H]GlcN (8 μCi/ml, specific activity 29 Ci/mmole) and the amount of radioactive hyaluronan released into the culture medium was determined as described.
as §1, with “Ci/ml,” for “μCi/ml,”, “μCi/mmole)” for “Ci/mmole)”
This experiment was performed to investigate, whether both processes could be uncoupled. Fibroblasts were labelled with [3H]GlcN and hyaluronan oligosaccharides, high molecular weight hyaluronan or an equal mixture of GlcNac and GlcA were introduced into the cytosol. [3H]hyaluronan secreted into the medium was isolated by ion exchange chromatography and the radioactivity was determined.

[14] = human fibroblasts, culture medium

MRP5, sequence (O15440 whole entry): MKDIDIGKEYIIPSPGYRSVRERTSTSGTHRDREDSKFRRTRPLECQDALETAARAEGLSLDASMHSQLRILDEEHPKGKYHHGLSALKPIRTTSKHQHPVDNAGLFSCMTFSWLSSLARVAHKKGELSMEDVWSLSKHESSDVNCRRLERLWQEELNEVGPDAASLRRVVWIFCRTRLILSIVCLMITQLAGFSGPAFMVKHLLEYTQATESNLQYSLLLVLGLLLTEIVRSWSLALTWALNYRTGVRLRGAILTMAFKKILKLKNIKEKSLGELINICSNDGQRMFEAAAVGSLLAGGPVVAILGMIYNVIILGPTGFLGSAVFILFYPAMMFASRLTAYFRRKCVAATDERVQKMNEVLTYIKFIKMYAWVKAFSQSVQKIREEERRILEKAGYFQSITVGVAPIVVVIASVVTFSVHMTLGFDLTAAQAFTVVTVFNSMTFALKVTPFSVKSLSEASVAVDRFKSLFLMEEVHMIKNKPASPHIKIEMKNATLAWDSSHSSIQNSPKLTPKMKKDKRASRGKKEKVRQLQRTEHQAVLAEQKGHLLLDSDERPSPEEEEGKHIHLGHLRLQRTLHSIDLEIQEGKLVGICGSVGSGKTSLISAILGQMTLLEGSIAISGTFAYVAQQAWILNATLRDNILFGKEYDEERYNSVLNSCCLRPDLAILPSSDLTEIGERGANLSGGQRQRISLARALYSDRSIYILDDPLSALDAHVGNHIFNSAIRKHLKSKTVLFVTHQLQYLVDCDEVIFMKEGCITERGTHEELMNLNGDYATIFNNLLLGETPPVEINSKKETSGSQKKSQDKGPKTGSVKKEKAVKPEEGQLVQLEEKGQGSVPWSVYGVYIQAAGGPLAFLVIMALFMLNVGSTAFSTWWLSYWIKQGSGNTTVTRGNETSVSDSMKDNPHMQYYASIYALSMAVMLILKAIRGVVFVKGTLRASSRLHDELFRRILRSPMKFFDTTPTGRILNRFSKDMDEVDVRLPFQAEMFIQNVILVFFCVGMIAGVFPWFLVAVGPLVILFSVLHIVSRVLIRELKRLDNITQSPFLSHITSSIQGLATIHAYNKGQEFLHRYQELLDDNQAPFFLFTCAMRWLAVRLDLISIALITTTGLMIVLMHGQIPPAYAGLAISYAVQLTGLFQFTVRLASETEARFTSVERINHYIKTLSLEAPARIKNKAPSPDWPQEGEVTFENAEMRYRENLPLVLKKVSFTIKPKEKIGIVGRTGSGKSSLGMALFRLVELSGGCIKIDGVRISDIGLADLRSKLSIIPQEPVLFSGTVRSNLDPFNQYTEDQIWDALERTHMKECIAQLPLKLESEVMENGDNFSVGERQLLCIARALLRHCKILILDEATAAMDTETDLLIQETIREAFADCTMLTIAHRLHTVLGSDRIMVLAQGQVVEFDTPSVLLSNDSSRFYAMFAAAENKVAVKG
MDR1, sequence (P08183 whole entry): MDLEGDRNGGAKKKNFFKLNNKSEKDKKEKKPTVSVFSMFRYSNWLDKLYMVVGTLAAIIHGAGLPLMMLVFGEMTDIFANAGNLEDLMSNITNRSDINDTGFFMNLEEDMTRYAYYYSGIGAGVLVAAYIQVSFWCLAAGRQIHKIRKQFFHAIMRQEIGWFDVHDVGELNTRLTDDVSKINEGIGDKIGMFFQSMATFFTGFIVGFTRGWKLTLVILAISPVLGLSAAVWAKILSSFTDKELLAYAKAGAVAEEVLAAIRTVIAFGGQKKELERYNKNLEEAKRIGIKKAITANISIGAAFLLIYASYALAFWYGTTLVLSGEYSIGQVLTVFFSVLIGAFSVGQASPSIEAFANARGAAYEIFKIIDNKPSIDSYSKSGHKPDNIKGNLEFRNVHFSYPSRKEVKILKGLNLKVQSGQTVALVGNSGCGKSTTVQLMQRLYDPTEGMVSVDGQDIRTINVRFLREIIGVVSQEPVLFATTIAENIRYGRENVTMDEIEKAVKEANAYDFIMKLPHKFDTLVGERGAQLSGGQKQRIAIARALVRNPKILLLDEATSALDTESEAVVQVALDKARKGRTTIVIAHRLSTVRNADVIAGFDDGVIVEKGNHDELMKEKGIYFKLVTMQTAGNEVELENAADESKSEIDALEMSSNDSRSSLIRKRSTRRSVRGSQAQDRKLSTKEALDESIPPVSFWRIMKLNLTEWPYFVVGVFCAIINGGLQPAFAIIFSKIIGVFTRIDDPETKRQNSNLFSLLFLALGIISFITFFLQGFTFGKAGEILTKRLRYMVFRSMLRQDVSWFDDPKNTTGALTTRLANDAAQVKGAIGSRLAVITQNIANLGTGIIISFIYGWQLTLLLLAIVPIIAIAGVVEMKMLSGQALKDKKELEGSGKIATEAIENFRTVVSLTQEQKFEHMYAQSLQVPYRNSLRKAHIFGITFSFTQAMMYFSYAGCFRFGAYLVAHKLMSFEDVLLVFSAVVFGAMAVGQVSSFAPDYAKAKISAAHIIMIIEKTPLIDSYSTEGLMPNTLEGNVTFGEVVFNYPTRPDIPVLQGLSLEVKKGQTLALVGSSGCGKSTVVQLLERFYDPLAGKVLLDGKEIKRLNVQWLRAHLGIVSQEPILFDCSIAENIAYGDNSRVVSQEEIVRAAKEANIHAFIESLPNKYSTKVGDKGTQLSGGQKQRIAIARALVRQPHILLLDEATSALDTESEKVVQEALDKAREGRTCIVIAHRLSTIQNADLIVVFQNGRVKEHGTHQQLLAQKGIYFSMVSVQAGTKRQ
MRP1, sequence (P33527 whole entry): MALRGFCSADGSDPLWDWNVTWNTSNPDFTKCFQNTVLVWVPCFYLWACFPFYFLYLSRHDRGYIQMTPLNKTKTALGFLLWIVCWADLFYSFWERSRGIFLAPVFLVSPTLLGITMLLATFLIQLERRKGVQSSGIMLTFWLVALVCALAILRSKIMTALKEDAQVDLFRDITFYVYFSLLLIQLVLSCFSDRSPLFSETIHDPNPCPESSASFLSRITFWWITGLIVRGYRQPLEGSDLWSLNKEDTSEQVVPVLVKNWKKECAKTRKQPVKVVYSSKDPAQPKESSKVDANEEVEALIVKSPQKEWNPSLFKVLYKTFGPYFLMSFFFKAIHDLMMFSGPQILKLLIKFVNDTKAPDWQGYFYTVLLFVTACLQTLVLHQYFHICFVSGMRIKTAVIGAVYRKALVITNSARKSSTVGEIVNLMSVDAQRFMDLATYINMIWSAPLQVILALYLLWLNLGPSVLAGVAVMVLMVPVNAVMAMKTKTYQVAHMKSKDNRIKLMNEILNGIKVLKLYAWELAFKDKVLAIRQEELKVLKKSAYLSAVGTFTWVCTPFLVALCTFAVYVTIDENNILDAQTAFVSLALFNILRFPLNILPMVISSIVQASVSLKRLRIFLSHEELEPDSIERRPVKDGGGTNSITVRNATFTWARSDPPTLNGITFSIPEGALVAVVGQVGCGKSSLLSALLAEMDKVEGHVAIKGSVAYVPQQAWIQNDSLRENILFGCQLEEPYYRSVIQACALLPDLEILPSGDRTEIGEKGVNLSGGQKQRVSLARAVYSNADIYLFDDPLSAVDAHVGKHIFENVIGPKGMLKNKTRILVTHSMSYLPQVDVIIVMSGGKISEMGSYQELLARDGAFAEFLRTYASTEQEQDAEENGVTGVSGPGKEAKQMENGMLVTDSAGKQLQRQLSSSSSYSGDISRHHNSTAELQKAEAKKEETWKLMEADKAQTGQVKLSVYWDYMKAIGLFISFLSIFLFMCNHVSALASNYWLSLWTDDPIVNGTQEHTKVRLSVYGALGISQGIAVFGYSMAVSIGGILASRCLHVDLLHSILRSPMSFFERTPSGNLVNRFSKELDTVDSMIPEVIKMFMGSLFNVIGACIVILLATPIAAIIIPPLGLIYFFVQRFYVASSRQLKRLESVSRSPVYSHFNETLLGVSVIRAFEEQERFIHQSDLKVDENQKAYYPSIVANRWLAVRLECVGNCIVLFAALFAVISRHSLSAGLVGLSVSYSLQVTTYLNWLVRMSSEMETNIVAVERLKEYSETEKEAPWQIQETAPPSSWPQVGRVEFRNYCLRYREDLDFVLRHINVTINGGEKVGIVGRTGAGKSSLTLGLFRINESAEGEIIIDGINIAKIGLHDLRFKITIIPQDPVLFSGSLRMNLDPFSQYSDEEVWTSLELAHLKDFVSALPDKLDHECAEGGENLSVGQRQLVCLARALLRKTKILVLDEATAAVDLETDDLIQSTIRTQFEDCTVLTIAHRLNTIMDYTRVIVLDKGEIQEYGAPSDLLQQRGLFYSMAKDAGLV
MRP transporters, sequence (P33527 whole entry): as above

## COc1cc2c(cc1OC)-c1c/c(=N\c3c(C)cc(C)cc3C)n(C)c(=O)n1CC2 [Trequinsin]
[1]; at 100 μM
  inhibition of export of 17β-glucuronosyl-estradiol by MRP7: 44%
[2]
  IC50: 100 µM
[3]
  inhibition of hyaluronan transport (words): good inhibitor
[4]; [14]
  IC50: 6 µM
[5]
  IC50: ~10 µM
[6]
  IC50: 60 µM
[7]; substrate cAMP, read-out: Ki, MRP5 mediated transport of cAMP
  Ki: 0.38 µM
[7]; substrate cGMP, read-out: Ki, MRP5 mediated transport of cGMP
  Ki: 0.24 µM

## CN(C)C(=O)CCSC(SCCC(=O)O)c1cccc(/C=C/c2ccc3ccc(Cl)cc3n2)c1 (stereo not shown) [MK-571]
[1]; at 30 μM
  inhibition of 17β-glucuronosyl-estradiol export by MRP7: 42%
[2]
  IC50: 150 µM
[3]
  inhibition of hyaluronan transport (words): did not inhibit
[4]; [14]
  IC50: > 400 µM
[4]; human fibroblasts, inhibition only partial
  concentrations at which hyaluronan secretion/production is inhibited: above 100 μM
[6]; membranes from human fibroblasts
  hyaluronan transport / synthase activity in membranes: less efficient
[6]
  IC50: > 100 µM
[7]; at concentrations up to 50 μM
  effect on MRP5 mediated transport of cGMP: no inhibitory effect
[7]
  published inhibitory concentrations IC50 or Ki, MRP5: no
[8]
  IC50: 469 µM

## COc1ccc2c(c1)c(CC(=O)O)c(C)n2C(=O)c1ccc(Cl)cc1 [Indomethacin]
[9]
  IC50: 10 to 20 µM
[2]
  IC50: 200 µM
[10]; read-out: IC50 for MDR1
  IC50: > 800 µM
[10]; read-out: published inhibitory concentrations IC50 or Ki, MDR1
  IC50: > 800 µM
[3]
  inhibition of hyaluronan transport (words): very good inhibition
[3]; listed as indomethacin
  inhibition of hyaluronan transport (words): inhibited hyaluronan transport
[4]; [14]
  IC50: 50 µM
[6]
  IC50: 10 µM
[7]; read-out: published inhibitory concentrations IC50 or Ki, MRP5
  IC50: > 100 µM
[7]; substrate S-(2,4-dinitrophenyl)glutathione, read-out: IC50, MRP5 mediated transport of S-(2,4-dinitrophenyl)glutathione
  IC50: > 100 µM
[11]
  IC50: ~50 µM

## CC(C)COCC(CN(Cc1ccccc1)c1ccccc1)N1CCCC1 (stereo not shown) [bepidril]
[12]
  protection from proteoglycan loss, safranin O histology: only inhibitory at high concentrations

## N=C(N)NC(=O)c1nc(Cl)c(N)nc1N [amyloride]
[12]
  protection from proteoglycan loss, safranin O histology: only inhibitory at high concentrations

## OCCN(CCO)c1nc(N2CCCCC2)c2nc(N(CCO)CCO)nc(N3CCCCC3)c2n1 [Dipyramidole]
[3]
  inhibition of hyaluronan transport (words): effective inhibitor
[4]; Homo sapiens
  IC50: 15 µM
[6]
  IC50: ~1 µM

## Hyaluronan
[13]; Example 10 Table 2, buffer
  [3H]hyaluronan: 10700 cpm
[13]; Example 11 Table 1, buffer 9436
  [3H]hyaluronan: 10723 cpm
[13]; introduced into the cytosol
  export of endogenous labelled hyaluronan: not

## C/C=C/C[C@@H](C)C(=O)[C@H]1C(=O)N[C@@H](C(C)C)C(=O)N(C)CC(=O)N(C)[C@@H](CC(C)C)C(=O)N[C@@H](C(C)C)C(=O)N(C)[C@@H](CC(C)C)C(=O)N[C@@H](C)C(=O)N[C@H](C)C(=O)N(C)[C@@H](CC(C)C)C(=O)N(C)[C@@H](CC(C)C)C(=O)N(C)[C@@H](C(C)C)C(=O)N1C [Valspodar, cyclosporin D, 6-[(2S, 4R, 6E)-4-methyl-2 (methylamino)-3-oxo-6-octenoic acid]-(9CI)]
[2]
  IC50: 45 µM
[3]; Homo sapiens, Fibroblast, read-out: IC50 for hyaluronan transport (export)
  IC50: ~15 µM
[4]; Homo sapiens
  IC50: 15 µM
